“And” between values parts separate entries of the source, which are not always exact repeats. Equal entries are not always repeated. Where two headings read alike, the source gives them in different places.
Assays:
[1] = cited from earlier work
HepaRG™ cells [2] = tested on: HepaRG™ cells
Excerpt: Cryopreserved HepaRG™ (HPRGC10), a terminally differentiated hepatic cell line, was purchased from ThermoFisher Scientific (Waltham, MA). HepaRG™ was thawed and cultured according to manufacturer's instructions. Briefly, the general purpose working medium was WEM supplemented with 1X GlutaMAX™ and 1X HepaRG™ Thaw, Plate, & General Purpose Medium Supplement. The metabolism working medium was WEM supplemented with 1X GlutaMAX™ and HepaRG™ Maintenance/Metabolism Medium Supplement. HepaRG™ cells were thawed in the general purpose working medium and plated in a 96-well plate coated with collagen I at 100 000 cells/well. One day after plating, the general purpose working medium was changed to the metabolism working medium. The metabolism working medium was renewed on day 4 and day 6 after plating. On day 7, the cells were treated in the metabolism working medium.
(§1) To load cells into microwells, ∼2000–200 000 cells in suspension were placed into each macrowell, and the chip was incubated at 37°C in the presence of 5% CO2 for 15 min. Cell were loaded into microwells by gravity, and excess cells were then washed off with PBS by shear force. The chip was covered with a layer of overlay agarose (1% w/v low-melting point agarose solution in PBS, kept molten at 43°C until use). For complete gelation of the overlay agarose, the chip was kept at room temperature for two minutes followed by 2 min at 4°C.
(§2) The alkaline comet assay was performed as previously ([15],[79]). Sodium chloride (NaCl, 7581), disodium EDTA (Na2EDTA, 4931), and sodium hydroxide pellets (NaOH, 7708) were purchased from VWR, Radnor, PA. Trizma® base (T1503), Trizma® HCl (T5941) and Triton X-100 (X-100) were obtained from MilliporeSigma, St. Louis, MO. 10 000× SYBR™ Gold nucleic acid gel stain was obtained from ThermoFisher Scientific, Waltham, MA.
(§3) The alkaline lysis buffer (pH ∼ 10) was a solution of 2.5 M NaCl, 100 mM Na2EDTA, 10 mM Trizma® base, and 1% (v/v) Triton X-100 dissolved in deionized H2O (dI H2O). […] The neutralization buffer (pH ∼ 7.5) was prepared by dissolving Trizma® HCl in distilled H2O to a final concentration of 0.4 M.
(§4) Cells encapsulated in CometChip were lysed in the alkaline lysis buffer overnight at 4°C. The nuclei were unwound in the alkaline unwinding buffer for 40 min at 4°C, and the DNA was electrophoresed in the same buffer at the same temperature for 30 min at 1 V/cm and ∼300 mA. The CometChip was then washed three times in neutralization buffer by submerging for 5 min each time.
(§5) The DNA on CometChip was stained for 15 min at room temperature with 1× of SYBR™ Gold diluted in PBS, protected from light. Fluorescent images of the comets were captured at 40× magnification using an epifluorescence microscope (Nikon Eclipse 80i, Nikon Instruments, Inc., Melville, NY, USA) with a 480 nm excitation filter. Image acquisition was achieved by automatic scanning using a motorized XY stage. Comet images were automatically analyzed using Guicometanalyzer, a custom software developed in MATLAB (The MathWorks Inc., Natick, MA, USA) as previously described ([15]). For each condition, 100 comets or more were analysed. Outputs from Guicometanalyzer were processed and imported to a spreadsheet (Microsoft Excel, Microsoft Office Suite 2016) using Comet2Excel, an in-house software developed in Python (Python Software Foundation, Python version 2.7.10). Software is freely available upon request.
For this experiment, the comets were analysed using Trevigen® Comet Analysis Software.
(§6) A vehicle control condition was included by diluting DMSO in cell culture medium to get a final concentration of 0.5%. Cells were incubated with the test compound for 24 h at 37°C in the presence of 5% CO2.
HepaRG™ were incubated with the test compound for 24 h at 37°C in the presence of 5% CO2. A vehicle control (1% DMSO) was included.

CYP1A2 [3] = biological target: T1, CYP1A2 (Homo sapiens, UniProt P05177); format: cell-based; settings: human
Experimental: (§7) The CYP450-Glo™ CYP3A4 assay with luciferin-IPA (V9001) and the CYP450-Glo™ CYP1A2 assay with luciferin-1A2 (V8421) were purchased from Promega, Madison, WI. The activity levels of CYP3A4 and CYP1A2 in cells were measured according to the manufacturer's protocol for non-lytic cell-based assays. Luminescent signals were recorded using a SpectraMax M2e microplate reader (Molecular Devices, Sunnyvale, CA, USA). Control wells with no cells were included to obtain background luminescence. The net signal for each sample was obtained by subtracting the background luminescence value.
(§8) CYP3A4 or CYP1A2 activity per cell can be obtained by normalizing CYP450-Glo™ values with cell numbers. After a sample was analyzed for CYP3A4 or CYP1A2 activity, the CTG® assay was performed to obtain an estimate of the number of viable cells in the sample. The result from CYP450-Glo™ was then divided by the CTG® value to obtain the average CYP3A4 or CYP1A2 activity per cell.

HepG2 cells = tested on: HepG2 cells
Experimental: HepG2 (ATCC® HB-8065™), an immortalized cell line derived from human hepatocellular carcinoma, was obtained from the American Type Culture Collection (Manassas, VA). HepG2 cells were cultured in high-glucose DMEM supplemented with 10% FBS, 1× GlutaMAX™, and 100 U/ml Pen-Strep. For chemical exposures, exponentially growing cells were plated in a tissue cultured treated 96-well plate two days before treatment.
as §1, §2, §3, §4, §5, §6
HepG2 were incubated with the test compound for 24 h at 37°C in the presence of 5% CO2. A vehicle control (0.07% sodium bicarbonate) was included.
Cells embedded in CometChip were placed on ice and irradiated with 0, 0.9, 1.8, 3.6, 5.4, 7.2 and 9 Gy of gamma rays from a Cs 137 radiation source with a dose rate of 0.9 Gy/min. The irradiated cells were submerged into lysis buffer overnight and the alkaline CometChip assay performed as described above.

CYP1A2 [4] = biological target: T1, CYP1A2; format: cell-based; design: The activity levels of CYP3A4 and CYP1A2 in cells were measured according to the manufacturer's protocol for non-lytic cell-based assays; endogenous in cells; host or cells: HepG2; settings: human
Experimental: as §7, §8

HepaRG™ cells [5] = format: cell-based, human
Experimental: The CTG® luminescent cell viability assay kit (G7570) was obtained from Promega, Madison, WI. Cell viability after 24 h of chemical treatment was measured according to the manufacturer's instructions. Luminescent signals were recorded using a SpectraMax M2e microplate reader (Molecular Devices, Sunnyvale, CA, USA) at room temperature. The emission bracket was from 360 to 750 nm. Control wells with no cells were included to obtain background luminescence, which was then subtracted from the signal measured in the sample wells.

[6] = 1 mM HU and 10 μM AraC, 24 h, doses with statistically significant result
[7] = 1 mM HU and 10 μM AraC, 24 h exposure

T1 sequence (P05177 whole entry): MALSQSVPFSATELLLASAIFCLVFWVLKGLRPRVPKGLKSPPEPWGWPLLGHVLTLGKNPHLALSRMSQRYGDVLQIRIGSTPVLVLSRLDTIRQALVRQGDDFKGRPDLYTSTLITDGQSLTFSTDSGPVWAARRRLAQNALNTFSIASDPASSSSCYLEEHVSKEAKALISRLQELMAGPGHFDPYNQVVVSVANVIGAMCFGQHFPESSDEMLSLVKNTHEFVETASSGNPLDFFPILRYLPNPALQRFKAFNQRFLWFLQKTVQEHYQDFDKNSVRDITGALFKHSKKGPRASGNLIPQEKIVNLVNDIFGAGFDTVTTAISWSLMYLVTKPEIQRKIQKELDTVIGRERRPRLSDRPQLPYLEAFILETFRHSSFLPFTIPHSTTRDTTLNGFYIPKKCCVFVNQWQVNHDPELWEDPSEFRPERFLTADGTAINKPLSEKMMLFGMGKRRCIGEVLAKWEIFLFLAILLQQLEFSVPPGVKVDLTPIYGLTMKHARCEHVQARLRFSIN

Cc1ccc(N)cc1N [2,4-DAT, 2,4-Diaminotoluene]
Carcinogenicity IARC classification [1]: Group 2B
Alkaline CometChip HepaRG (+ HU + AraC) ‘+’ dose range (HepaRG™ cells [2]; [6]): 10 mM
Genotoxicity Alkaline CometChip HepaRG (+ HU + AraC) +/− (HepaRG™ cells [2]; [7]): +
Genotoxicity Alkaline CometChip HepaRG +/− (HepaRG™ cells [2]; without HU/AraC, 24 h exposure): −

O=c1cc(-c2ccccc2)oc2c1ccc1ccccc12 [ANF, α-Naphthoflavone]
B[a]P induction of CYP1A2 in the presence of ANF (CYP1A2 [3]): induction of CYP1A2 is prevented
DNA damage by inhibitor alone (HepG2 cells): does not induce DNA damage
Level of B[a]P-induced SSBs in the presence of ANF (HepG2 cells): near background levels
DNA damage by inhibitor alone (TK6 cells): does not induce DNA damage
B[a]P induction of CYP1A2 in the presence of ANF (CYP1A2 [4]): induction of CYP1A2 is prevented
DNA damage by inhibitor alone (HepaRG™ cells [2]): does not induce DNA damage
Level of B[a]P-induced SSBs in the presence of ANF (HepaRG™ cells [2]): near background levels

O=C(N[C@H](CO)[C@H](O)c1ccc([N+](=O)[O-])cc1)C(Cl)Cl [CAM, Chloramphenicol]
Cytotoxicity (HepaRG™ cells [5]; HepaRG, 24 h, CTG): high levels of cytotoxicity
Alkaline CometChip HepaRG (+ HU + AraC) ‘+’ dose range (HepaRG™ cells [2]; [6]): 3.1 mM

O=P1(N(CCCl)CCCl)NCCCO1 (centres unmarked) [CP, Cyclophosphamide monohydrate]
DNA damage score (HepaRG™ cells [2]): positives
Genotoxicity Alkaline CometChip HepaRG (+ HU + AraC) +/− (HepaRG™ cells [2]): +
Genotoxicity Alkaline CometChip HepaRG +/− (HepaRG™ cells [2]): −
Alkaline CometChip HepaRG (+ HU + AraC) ‘+’ dose range (HepaRG™ cells [2]; human): 5 to 10 mM

N.N.[Cl][Pt][Cl] [Cisplatin, cis-Diamineplatinum(II) dichloride]
Carcinogenicity IARC classification [1]: Group 2A
DNA damage score (HepaRG™ cells [2]; HepaRG, using HU/AraC, 24 h): negative results

COc1cc([C@@H]2c3cc4c(cc3[C@@H](O[C@@H]3O[C@@H]5CO[C@@H](C)O[C@H]5[C@H](O)[C@H]3O)[C@H]3COC(=O)[C@H]23)OCO4)cc(OC)c1O [Etoposide]
Genotoxicity Alkaline CometChip HepaRG (+ HU + AraC) +/− (HepaRG™ cells [2]): +
Genotoxicity Alkaline CometChip HepaRG +/− (HepaRG™ cells [2]): −

OO [H2O2]
Comets on alkaline CometChip (comet tails) (TK6 cells; TK6 cells, 50 μM H2O2): visibly large tails

Oc1ccc(O)cc1 [HQ, Hydroquinone]
Cytotoxicity (HepaRG™ cells [5]): high levels of cytotoxicity
Genotoxicity Alkaline CometChip HepaRG (+ HU + AraC) +/− (HepaRG™ cells [2]): +
Genotoxicity Alkaline CometChip HepaRG +/− (HepaRG™ cells [2]): −
Alkaline CometChip HepaRG (+ HU + AraC) ‘+’ dose range (HepaRG™ cells [2]; human): 0.33 mM

CC(=O)N1CCN(c2ccc(OCC3COC(Cn4ccnc4)(c4ccc(Cl)cc4Cl)O3)cc2)CC1 (centres unmarked) [KET, Ketoconazole]
DNA damage by inhibitor alone (HepG2 cells): does not induce DNA damage
DNA damage by inhibitor alone (TK6 cells): does not induce DNA damage
DNA damage by inhibitor alone (HepaRG™ cells [2]): does not induce DNA damage
Level of AFB1-induced SSBs in the presence of KET (HepaRG™ cells [2]): reduced to near background levels

CN(C)N=O [NDMA, N-Nitrosodimethylamine]
Carcinogenicity IARC classification [1]: Group 2A
Alkaline CometChip HepaRG (+ HU + AraC) ‘+’ dose range (HepaRG™ cells [2]; [6]): 2.5 to 20 mM
Genotoxicity Alkaline CometChip HepaRG (+ HU + AraC) +/− (HepaRG™ cells [2]; [7]): +
DNA damage score (HepaRG™ cells [2]; HepaRG, in the absence of HU/AraC, 24 h): positive result
Alkaline CometChip HepaRG ‘+’ dose range (HepaRG™ cells [2]; without HU/AraC, 24 h, doses with statistically significant result): 2.5 to 20 mM
Genotoxicity Alkaline CometChip HepaRG +/− (HepaRG™ cells [2]; without HU/AraC, 24 h exposure): +

Nc1ccc(Cl)cc1 [PCA, p-Chloroaniline]
Carcinogenicity IARC classification [1]: Group 2B
Cell death (HepaRG™ cells [5]; HepaRG, highest dose (5 mM), 24 h): ~50%
DNA damage score (HepaRG™ cells [2]; HepaRG, using HU/AraC, 24 h): negative results

C[C@H]1[C@H](OC(=O)CCC(=O)O)O[C@@H]2O[C@@]3(C)CC[C@H]4[C@H](C)CC[C@@H]1[C@@]24OO3 [artesunate, Artesunate]
DNA damaging potential (HepG2 cells; HepG2, 24 h, absence vs presence of 1 mM HU and 10 μM AraC): HU/AraC reveals a wider range of genotoxic artesunate doses

Aflatoxin B1 [AFB1]
Average % Tail DNA (HepG2 cells): 21.9% and 33.4%
SSBs, dose-response (HepG2 cells): relatively small increase in SSBs
SSBs, response (TK6 cells): no response
SSBs, dose-response (HepaRG™ cells [2]): strong dose-response relationship

From article PMC7026589, “Sensitive CometChip assay for screening potentially carcinogenic DNA adducts by trapping DNA repair intermediates” (Nucleic Acids Research, 2019)
